Data as given in patent US4130559A, “Method for the preparation of 6-aminopenicillinic acid derivatives” (priority 1977, dated 1978).

Test: Acid resistance (half-life period)
Assay type: physicochemical
Settings: acid ph 1.3; Temperature 37° C, pH 1.3; Table 2, cyclopropyl series; read-out: τ1/2 half-life period (acid resistance)
Experimental: All compounds of this group were prepared in the form of sodium salts. Bactericidal activity, degree of hydrolysis with staphylococc penicillinase and acid resistance of the penicillins were determined.

Row | SMILES | half-life
1 | CCCOc1cccc(C2(C(=O)N[C@@H]3C(=O)N4[C@@H]3SC(C)(C)[C@@H]4C(=O)O)CC2)c1 [Compound IX (Table 2)] | 14.5 min
2 | CC(C)Oc1ccccc1C1(C(=O)NC2C(=O)N3C2SC(C)(C)C3C(=O)O)CC1 (stereo not drawn) [Compound V (Table 2)] | 6 min
3 | CCCCOc1ccccc1C1(C(=O)NC2C(=O)N3C2SC(C)(C)C3C(=O)O)CC1 (stereo not drawn) [Compound VI (Table 2)] | 5.2 min
4 | COc1cccc(C2(C(=O)NC3C(=O)N4C3SC(C)(C)C4C(=O)O)CC2)c1 (stereo not drawn) [Compound VII (Table 2)] | 7.2 min
5 | CCOc1cccc(C2(C(=O)NC3C(=O)N4C3SC(C)(C)C4C(=O)O)CC2)c1 (stereo not drawn) [Compound VIII (Table 2)] | 7.3 min
6 | CC(C)Oc1cccc(C2(C(=O)N[C@@H]3C(=O)N4[C@@H]3SC(C)(C)[C@@H]4C(=O)O)CC2)c1 [Compound X (Table 2)] | 10.5 min
7 | CCCCOc1cccc(C2(C(=O)N[C@@H]3C(=O)N4[C@@H]3SC(C)(C)[C@@H]4C(=O)O)CC2)c1 [Compound XI (Table 2)] | 6.2 min
8 | COc1ccc(C2(C(=O)N[C@@H]3C(=O)N4[C@@H]3SC(C)(C)[C@@H]4C(=O)O)CC2)cc1 [Compound XII (Table 2)] | 7.3 min
9 | CCOc1ccc(C2(C(=O)N[C@@H]3C(=O)N4[C@@H]3SC(C)(C)[C@@H]4C(=O)O)CC2)cc1 [Compound XIII (Table 2)] | 6.7 min

Test: in vivo
Settings: mouse, iv

Row | SMILES | MTD
10 | CCCOc1cccc(C2(C(=O)N[C@@H]3C(=O)N4[C@@H]3SC(C)(C)[C@@H]4C(=O)O)CC2)c1 [Compound IX (Table 2)] | 1500 mg/kg
11 | CC(C)Oc1ccccc1C1(C(=O)NC2C(=O)N3C2SC(C)(C)C3C(=O)O)CC1 (stereo not drawn) [Compound V (Table 2)] | 500 mg/kg
12 | CCCCOc1ccccc1C1(C(=O)NC2C(=O)N3C2SC(C)(C)C3C(=O)O)CC1 (stereo not drawn) [Compound VI (Table 2)] | 500 mg/kg
13 | COc1cccc(C2(C(=O)NC3C(=O)N4C3SC(C)(C)C4C(=O)O)CC2)c1 (stereo not drawn) [Compound VII (Table 2)] | 1500 mg/kg
14 | CCOc1cccc(C2(C(=O)NC3C(=O)N4C3SC(C)(C)C4C(=O)O)CC2)c1 (stereo not drawn) [Compound VIII (Table 2)] | 1500 mg/kg
15 | CC(C)Oc1cccc(C2(C(=O)N[C@@H]3C(=O)N4[C@@H]3SC(C)(C)[C@@H]4C(=O)O)CC2)c1 [Compound X (Table 2)] | 500 mg/kg
16 | CCCCOc1cccc(C2(C(=O)N[C@@H]3C(=O)N4[C@@H]3SC(C)(C)[C@@H]4C(=O)O)CC2)c1 [Compound XI (Table 2)] | 250 mg/kg
17 | COc1ccc(C2(C(=O)N[C@@H]3C(=O)N4[C@@H]3SC(C)(C)[C@@H]4C(=O)O)CC2)cc1 [Compound XII (Table 2)] | 2000 mg/kg
18 | CCOc1ccc(C2(C(=O)N[C@@H]3C(=O)N4[C@@H]3SC(C)(C)[C@@H]4C(=O)O)CC2)cc1 [Compound XIII (Table 2)] | 2750 mg/kg
